In patent US20030148963A1 (priority 2000, published 2003):
Where two headings read alike, the source gives them in different places. Marks after values point to notes of the source that are not given here.

Experiments:
IFN-γ = experiment: Serum IFN-γ in CII immunized mice (ELISA); assay type: in vivo, B10.QxDBA/1 female mice; details: serum at end of experiment, mean ± SEM
Method: For quantification of serfu CII antibodies, 96-well plates (Nunc, Roskilde, Denmark) were coated overnight at 4° C. with 10 μg/ml of native CII. Standards and samples were diluted in 0.5% BSA-PBS. Biotinylated F(ab/)2 fragments of goat anti-mouse IgG (Jackson ImmunoResearch Laboratories, West Grove, Pa.) was used as secondary antibody. Development was performed using horseradish peroxidase 0.5 μg/ml and 2.5 mg of the enzyme substrate 2,2-azino-bis-(3-ethylbenzothiazoline sulfonic acid) (Sigma) per mal in citrate buffer (pH 4.2), containing 0.0075% H2O2. The absorbance was measured at 405 nm in a SPECTRAmax spectrophotometer (Molecular Devices, Calif.). IFN-γ levels in sera were quantified with an ELISA system previously described (13). Ninety-six well plates (Nunc) were coated with 2 μg/ml of rat anti-mouse IFN-γ mab (Pharmingen, San Diego, Calif.). Sera, recombinant IFN-γ (Genzyme, Cambridge, Mass.), biotinylated antibodies were all diluted in 0.05 M Tris pH 7.4+0.015 M NaCl. A biotinylated anti mouse IFN-γ antibody (2 μg/ml) (Pharmigen) was used as secondary antibody. After incubation with extravidin alkaline phosphatase 0.5 ?g/ml and alkaline phosphatase substrate 1 mg/ml (Sigma) the absorbance was measured at 405 nm. Interleukin 6 (IL-6) levels in serum and supernatants were measured by a bioassay using cell line B13.29, subclone B9, which is dependent on IL-6 for growth. […]

[1] = system: S. aureus-induced arthritis; experiment: Histopathological and immunohistochemical examination of joints, S. aureus arthritis; assay type: in vivo, NMRI mice
Method: The mice were sacrificed 6 days after bacterial inoculation One front and one hind paw from each animal in both groups (etoposide-treated and controls) were removed. Histopathological examination was performed after routine fixation, decalcification, paraffin embedding, and staining with hematoxylin and eosin. All the slides were coded and the joints were studied with regard to synovial hypertrophy (defined as a synovial membrane thickness of more than two cell layers), pannus formation (synovial tissue overlaying the joint cartilage), and cartilage and bone destruction.
In another experiment, mice were killed by cervical dislocation 6 days after bacterial inoculation, all four limbs were removed and demineralized by a procedure detailed in an earlier report. The demineralized specimens were mounted on cryostat chucks, frozen in isopentane prechilled by liquid nitrogen, and kept at −70° C. until cryosectioned. Six μm-thick sections were cut frontally to permit simultaneous inspection of most joints within the paw. All sections were fixed in cold acetone for 5 min, washed in PBS, and depleted of endogenous peroxidase by treatment with 0.3% H2O2 for 5 min. The sections were incubated overnight in a humid atmosphere at +4° C. with 50 μl portions of unlabelled rat monoclonal antibody specific for macrophages (Mac-3, clone M3/84 from PharMingen), diluted in PBS containing 1% BSA. Biotin-labelled rabbit antl-rat Ig diluted in PBS-BSA was used as secondary antibody. Binding of secondary antibodies was detected by stepwise incubation with avidin-biotin-peroxidase complexes (ABC) and a buffert containing 3-amino-9-ethyl-carbazole and H2O2. All sections were counterstained with Mayer's hematoxylin.

IL-6 [2] = assay type: cell-based, NMRI mice; details: 24 h supernatant
IC-21 cells = experiment: Viability and cell number of IC-21 cells; assay type: cell-based, murine; details: IC-21, etoposide-containing medium at concentrations 0.1 and 0.01 mM (so in the source); preliminary experiments, data not shown
Method: (§1) These cells display many typical features of the macrophage phenotype and are therefore a suitable model for studying cytoline and chemokine release during inflammation (16). The cells were maintained in continous culture using RPMI-1640 supplemented with 10% FCS, L-glutamine, and gentamycin. When the cells had grown to about 70% confluency, they were seeded into a 24-well-plate (Nunc) at a concentration of 1×10^5 per well and incubated at 37° C. in 5% CO2 for 24 h. After 24 h the medium was changed into etoposide-containing medium at concentrations 0.1 and 0.01 mM. […] After 24 h of incubation, the cells were washed once with PBS, and reincubated with medium containing different concentrations (1, 10, 100, 1000 ng/ml) of LPS (Difco) and IFN-γ (10, 50, 100 u/nml). The interferon-γ was purified from the supernatants from Chinese hanater ovary (CHO) cells transfected with the murine IFN-γ gene (hybridoma kindly provided by Dr. Morris, Department of Biological Sciences, University of Warwick, Coventry, UK). After 2 and 24 h of incubation the supernatants were collected and stored at −20° C. until analysis.

IL-6 [3] = experiment: IL-6 release by IC-21 macrophage cell line; assay type: cell-based, murine
Method: as §1, with “h.” for “h. After 24 h the medium was changed into etoposide-containing medium at concentrations 0.1 and 0.01 mM.”

IL-6 [4] = assay type: cell-based; details: spleen cells of mice given 12.5 mg/kg 4 days a week for 4 weeks; mean ± SEM, 4 mice
[5] = etoposide 1 μM, mean ± SEM, four mice

In the case of `COc1cc([C@@H]2c3cc4c(cc3[C@@H](O[C@@H]3O[C@@H]5CO[C@@H](C)O[C@H]5[C@H](O)[C@H]3O)[C@H]3COC(=O)[C@H]23)OCO4)cc(OC)c1O` [Etoposide], the IFN-g (IFN-γ; Etoposide-pretreated) is reported as 1848 ± 248^c u/ml, the IFN-g (IFN-γ; Etoposide-treated (from day 40)) is reported as 2094 ± 199^b u/ml and the “Mice with cartilage and bone destructions” value ([1]; 6 days after S. aureus inoculation, controls 8 out of 10) is reported as 4 out of 8. For the same compound, the “Mice with synovial hypertrophy” value ([1]; 6 days after S. aureus inoculation, controls 9 out of 10) was 4 out of 8, the “Numbers of Mac-3 positive cells in joints” value ([1]; S. aureus infected, etoposide vs PBS, data not shown) was “did not show any significant differences” and the “IL-6, ConA stimulated” value (IL-6 [2]; [5]) was 825 ± 455 pg/mL. The “IL-6, TSST-1 stimulated” value (IL-6 [2]; [5]) was 45 ± 16b pg/ml, the “IL-6, ConA stimulated” value (IL-6 [2]; etoposide 10 μM) was <10^b pg/ml and the “IL-6, TSST-1 stimulated” value (IL-6 [2]; etoposide 10 μM) was <10^b pg/ml. For the same compound, the “IL-6, ConA stimulated” value (IL-6 [2]; etoposide 100 μM) was <10^b pg/ml, the “IL-6, TSST-1 stimulated” value (IL-6 [2]; etoposide 100 μM) was <10^b pg/ml and the “Cell viability or total cell numbers” value (IC-21 cells) was “not to influence the cell viability or total cell numbers”. The “Levels of IL-6 in supernatants” value (IL-6 [3]; IC-21, stimulated with IFN-γ, levels very low, FIG. 6B) was “seemed to be upregulated”, the “Levels of IL-6 in supernatants” value (IL-6 [3]; IC-21, stimulation by LPS, FIG. 6A) was “downregulated” and the “IL-6, Con A” value (IL-6 [4]) was 74 ± 15^a) pg/ml. The “IL-6, TSST-1” value (IL-6 [4]) was 10 ± 3 pg/mL.
